Results from patent US20090318470A1, “1-SUBSTITUTED-3-(NAPHTHALEN-1-YLSULFONYL)-5-(PIPERAZIN-1-YL)-1H-INDAZOLE COMPOUNDS AS 5-HYDROXYTRYPTAMINE-6 LIGANDS” (Wyeth, priority 2008, published 2009).
Where a name gives a salt, the structure may show the parent alone. Read-outs that look alike come from different tables or passages of the source.

Assays:
[1] = target: T1, serotonin 5HT6 receptor subtype (Homo sapiens, UniProt P50406); test: 5HT6 Binding Affinity ([3H]-LSD SPA binding)
T1 construct: host or cells: CHO-Dukx-A2 cells, clone 50-7

[2] = Pharmacokinetics following a single IV bolus; set-up: species or system Male Long Evans Rats; settings: male, Long Evans, rat, in vivo; single IV bolus at 2 mg/kg, n = 3
Description: (§1) Pharmacokinetics and CNS Penetration of Compounds were Determined Using HPLC Analysis of the Prepared Samples and Presented in Tables 2, 3, & 4 Below
(§2) Male Long Evans Rats were dosed with the candidate drug substance at the dosage amount and route listed above using standard pharmacokinetic procedures (Applied Biopharmaceutics & Pharmacokinetics, Shargel, L and Yu, A, 4th Ed 1999, McGraw-Hill, N.Y.; Welling, P G, Pharmacokinetics, Process and Mathematics, ACS Monograph 185, American Chemical Society 1986, Washington, D.C.; Lee, P and Amidon, G L, Pharmacokinetic Analysis-A Practical Approach, Technomic Pub Co Lancaster Pa. 1996)).

[3] = Pharmacokinetics following a single oral dose; set-up: species or system Male Long Evans Rats; settings: male, Long Evans, rat, in vivo; for bioavailability: po, 10 mg/kg, Table 1, obtained according to Example 10; for AUC(0-inf): single oral dose of 10 mg/kg
Description: as §1, §2

[4] = CNS penetration following a single intraperitoneal dose; format: in vivo, Male Long Evans Rats; settings: for Kp: male, Long Evans, rat, brain and plasma, read-out: Brain/plasma ratio
[5] = Microsomal stability, rat; format: in vitro ADME; settings: Rat microsomes
Description: (§3) Compounds listed in Table 5, column A, are prepared as described in U.S. Pat. No. 7,238,696. Each of the compounds in Table 5, columns A and B, were screen according to the microsomal stability procedure described in Di et al., Journal of Biomolecular Screening 2003:453-462.

[6] = Microsomal stability, human; format: in vitro ADME; settings: Human microsomes
Description: as §3

[7] = intraperitoneal, 10 mg/mL, Table 1, obtained according to Example 10
[8] = ip, Table 4, single intraperitoneal dose of 10 mg/kg, n = 3
[9] = CHO-Dukx-A2 cells expressing 5HT6, 3 nM [3H]-LSD, Cheng-Prusoff, read-out: 5HT6 Ki

T1 sequence (P50406 whole entry): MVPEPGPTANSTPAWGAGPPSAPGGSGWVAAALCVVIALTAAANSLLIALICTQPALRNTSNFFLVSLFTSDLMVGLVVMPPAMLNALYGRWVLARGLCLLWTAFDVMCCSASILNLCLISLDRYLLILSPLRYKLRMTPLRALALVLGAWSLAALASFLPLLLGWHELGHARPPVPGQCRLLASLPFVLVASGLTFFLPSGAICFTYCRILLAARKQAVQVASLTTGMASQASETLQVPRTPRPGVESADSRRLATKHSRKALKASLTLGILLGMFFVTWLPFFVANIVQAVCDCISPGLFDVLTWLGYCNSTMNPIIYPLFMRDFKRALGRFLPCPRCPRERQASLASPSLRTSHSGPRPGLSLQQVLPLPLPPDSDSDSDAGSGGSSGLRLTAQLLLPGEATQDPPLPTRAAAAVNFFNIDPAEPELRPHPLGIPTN

SMILES | Ki [1] | AUC(0-inf) [2] | bioavailability [3] | AUC(0-inf) [3] | Kp [4, 7] | Kp [4, 8] | AUClast ([4]; matrix brain, single intraperitoneal dose of 10 mg/kg, n = 3) | Ki [1, 9] | Microsomal Stability [5] | Microsomal Stability [6]
O=S(=O)(c1cccc2ccccc12)c1n[nH]c2ccc(N3CCNCC3)cc12 [Compound C, 3-(naphthalen-1-ylsulfonyl)-5-(piperazin-1-yl)-1H-indazole dihydrochloride, reference compound] | 0.8 nM | 390 ng·h/mL | 3% | 119 ng·h/mL | < 0.01 | < 0.01 | Not detectable |  |  | 
CC(C)Cn1nc(S(=O)(=O)c2cccc3ccccc23)c2cc(N3CCNCC3)ccc21 [Example 1, 1-Isobutyl-3-(naphthalen-1-ylsulfonyl)-5-(piperazin-1-yl)-1H-indazole dihydrochloride] |  | 378 ng·h/mL | 22% | 413 ng·h/mL | 0.81 | 0.81 |  | 4.6 nM | 24 min | >30 min
O=S(=O)(c1cccc2ccccc12)c1nn(Cc2ccccc2)c2ccc(N3CCNCC3)cc12 [Example 2, 1-Benzyl-3-(naphthalene-1-sulfonyl)-5-piperazin-1-yl-1H-indazole dihydrochloride] |  | 843 ng·h/mL | 50% | 2100 ng·h/mL | 0.26 | 0.26 |  | 7.5 nM | 25 min | 13 min
O=S(=O)(c1cccc2ccccc12)c1nn(Cc2cccc(Cl)c2)c2ccc(N3CCNCC3)cc12 [Example 3, 1-(3-Chlorobenzyl)-5-(piperazin-1-yl)-3-(naphthalen-1-ylsulfonyl)-1H-indazole dihydrochloride] |  |  |  |  |  |  |  | 23.5 nM |  | 
CC(=O)n1nc(S(=O)(=O)c2cccc3ccccc23)c2cc(N3CCNCC3)ccc21 [Example 4, 1-(3-(Naphthalen-1-ylsulfonyl)-5-(piperazin-1-yl)-1H-indazol-1-yl)ethanone hydrochloride] |  |  |  |  |  |  |  | 1 nM |  | 
Cn1nc(S(=O)(=O)c2cccc3ccccc23)c2cc(N3CCNCC3)ccc21 [Example 5, 1-Methyl-3-(naphthalen-1-ylsulfonyl)-5-(piperazin-1-yl)-1H-indazole dihydrochloride] |  |  |  |  | 0.3 |  |  | 1.6 nM |  | 
CCn1nc(S(=O)(=O)c2cccc3ccccc23)c2cc(N3CCNCC3)ccc21 [Example 6, 1-Ethyl-3-(naphthalen-1-ylsulfonyl)-5-(piperazin-1-yl)-1H-indazole dihydrochloride] |  |  |  |  | 0.45 |  |  | 1.9 nM |  | 
CCCn1nc(S(=O)(=O)c2cccc3ccccc23)c2cc(N3CCNCC3)ccc21 [Example 7, 3-(Naphthalen-1-ylsulfonyl)-5-(piperazin-1-yl)-1-propyl-1H-indazole dihydrochloride] |  |  |  |  |  |  |  | 2.2 nM |  | 
CC(C)n1nc(S(=O)(=O)c2cccc3ccccc23)c2cc(N3CCNCC3)ccc21 [Example 8, 1-Isopropyl-3-(naphthalen-1-ylsulfonyl)-5-(piperazin-1-yl)-1H-indazole dihydrochloride] |  |  |  |  | 0.36 |  |  | 3 nM | >30 min | >30 min
